biological target: T1, HDM2 (Homo sapiens, UniProt Q00987); test: FRET assay (HDM2 inhibition; method not described in this part); assay type: binding; conditions: Table 1
T1 construct: Thioredoxin (N); made in house; host or cells: E. coli strain BL21(DE3)Rosetta
T1 sequence (Q00987 17-125): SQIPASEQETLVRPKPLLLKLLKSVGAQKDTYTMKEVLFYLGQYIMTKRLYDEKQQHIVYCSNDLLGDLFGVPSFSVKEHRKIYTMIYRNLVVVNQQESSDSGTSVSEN

| Structure (SMILES) | IC50 |
| --- | --- |
| CCC(C)c1ccnc(-c2nc3nc(C(=O)O)nc(N[C@H](C)C4CCC4)c3n2Cc2ccc(C(F)(F)F)cc2)c1 (single isomer, unassigned) [Example 1.15] | 3.32 nM |
| CCOc1ccc(C(C)C)cc1-c1nc2nc(C(=O)O)nc(N[C@H](C)C3CCC3)c2n1Cc1ccc(C(F)(F)F)cc1 [Example 1.12, (R)-6-((1-cyclobutylethyl)amino)-8-(2-ethoxy-5-isopropylphenyl)-7-(4-(trifluoromethyl)benzyl)-7H-purine-2-carboxylic acid] | 29.4 nM |
| C[C@@H](Nc1nc(C(=O)O)nc2nc(-c3ccc4nccnc4c3)n(Cc3ccc(C(F)(F)F)cc3)c12)C1CCC1 [Example 1.106, 6-{[(1R)-1-cyclobutylethyl]amino}-8-quinoxalin-6-yl-7-[4-(trifluoromethyl)benzyl]-7H-purine-2-carboxylic acid] | 23.5 nM |
| C[C@@H](Nc1nc(C(=O)O)nc2nc(-c3cc(C4CCC4)ccn3)n(Cc3ccc(C(F)(F)F)cc3)c12)C1CCC1 [Example 1.54] | 5.61 nM |
| C[C@@H](Nc1nc(C(=O)O)nc2nc(-c3ccc(-c4ccccc4)c(F)c3)n(Cc3ccc(C(F)(F)F)cc3)c12)C1CCC1 [Example 1.112, 6-{[(1R)-1-cyclobutylethyl]amino}-8-(2-fluorobiphenyl-4-yl)-7-[4-(trifluoromethyl)benzyl]-7H-purine-2-carboxylic acid] | 344 nM |
| COc1c(C)cc(-c2nc3nc(C(=O)O)nc(N[C@H](C)C4CCC4)c3n2Cc2ccc(C(F)(F)F)cc2)cc1C [Example 1.134, 6-{[(1R)-1-cyclobutylethyl]amino}-8-(4-methoxy-3,5-dimethylphenyl)-7-[4-(trifluoromethyl)benzyl]-7H-purine-2-carboxylic acid] | 56.2 nM |
| C[C@@H](Nc1nc(C(=O)O)nc2nc(-c3ccc(C(=O)C4CC4)cc3)n(Cc3ccc(C(F)(F)F)cc3)c12)C1CCC1 [Example 1.116, 6-{[(1R)-1-cyclobutylethyl]amino}-8-[4-(cyclopropylcarbonyl)phenyl]-7-[4-(trifluoromethyl)benzyl] - 7H-purine-2-carboxylic acid] | 66.3 nM |
| Cc1cc2ncccc2cc1-c1nc2nc(C(=O)O)nc(N[C@H](C)C3CC3)c2n1Cc1ccc(C(F)(F)F)cc1 [Example 1.25, 6-{[(1R)-1-cyclopropylethyl]amino} -8-(7-methylquinolin-6-yl)-7-[4-(trifluoromethyl)benzyl]-7H-purine-2-carboxylic acid] | 1070 nM |
| Cc1cc(OC(F)(F)F)ccc1-c1nc2nc(C(=O)O)nc(N[C@H](C)C3CCC3)c2n1Cc1ccc(C(F)(F)F)cc1 [Example 1.129, 6-{[(1R)-1-cyclobutylethyl]amino}-8-[2-methyl-4-(trifluoromethoxy)phenyl]-7-[4-(trifluoromethyl)benzyl]-7H-purine-2-carboxylic acid] | 46 nM |
| COc1ccnc(-c2nc3nc(C(=O)O)nc(N[C@H](C)C4CCC4)c3n2Cc2ccc(C(F)(F)F)cc2)c1 [Example 1.67, 6-{[(1R)-1-cyclobutylethyl]amino}-8-(4-methoxypyridin-2-yl)-7-[4-(trifluoromethyl)benzyl]-7H-purine-2-carboxylic acid] | 14.2 nM |
| C[C@@H](Nc1nc(C(=O)O)nc2nc(-c3cc(C(F)(F)F)ccn3)n(Cc3ccc(C(F)(F)F)cc3)c12)C1CCC1 [Example 1.60, 6-{[(1R)-1-cyclobutylethyl]amino}-7-[4-(trifluoromethyl)benzyl] - 8-[4-(trifluoromethyl)pyridin-2-yl]-7H-purine-2-carboxylic acid] | 15.2 nM |
| CC(C)c1cc(-c2nc3nc(C(=O)O)nc(N[C@H](C)C4CCC4)c3n2Cc2ccc(C(F)(F)F)cc2)ccn1 [Example 1.4, (R)-6-((1-cyclobutylethyl)amino)-8-(2-isopropylpyridin-4-yl)-7-(4-(trifluoromethyl)benzyl)-7H-purine-2-carboxylic acid] | 58.8 nM |
| C[C@@H](Nc1nc(C(=O)O)nc2nc(-c3ncccc3C(F)(F)F)n(Cc3ccc(C(F)(F)F)cc3)c12)C1CCC1 [Example 1.135, 6-{[(1R)-1-cyclobutylethyl]amino}-7-[4-(trifluoromethyl)benzyl]-8-[3-(trifluoromethyl)pyridin-2-yl]-7H-purine-2-carboxylic acid] | 47.9 nM |
| C[C@@H](Nc1nc(C(=O)O)nc2nc(-c3cc(C(F)(F)F)ccc3F)n(Cc3ccc(C(F)(F)F)cc3)c12)C1CCC1 [Example 1.38, 6-{[(1R)-1-cyclobutylethyl]amino}-8-[2-fluoro-5-(trifluoromethyl)phenyl] - 7-[4-(trifluoromethyl)benzyl]-7H-purine-2-carboxylic acid] | 27.5 nM |
| Cc1c(C(C)C)ccnc1-c1nc2nc(C(=O)O)nc(N[C@H](C)C3CCC3)c2n1Cc1ccc(C(F)(F)F)cc1 [Example 1.87, 6-{[(1R)-1-cyclobutylethyl]amino}-8-[3-methyl-4-(1-methylethyl)pyridin-2-yl]-7-[4-(trifluoromethyl)benzyl]-7H-purine-2-carboxylic acid] | 59 nM |
| C[C@@H](Nc1nc(C(=O)O)nc2nc(-c3cccc(-n4cccc4)c3)n(Cc3ccc(C(F)(F)F)cc3)c12)C1CCC1 [Example 1.107, 6-{[(1R)-1-cyclobutylethyl]amino}-8-[3-(1H-pyrrol-1-yl)phenyl]-7-[4-(trifluoromethyl)benzyl]-7H-purine-2-carboxylic acid] | 34.8 nM |
| CC(C)c1ccnc(-c2nc3nc(C(=O)O)nc(N[C@H](C)C4CCC4)c3n2Cc2ccc(OC(F)(F)F)c(F)c2)c1 [Example 1.71, 6-{[(1R)-1-cyclobutylethyl]amino}-7-[3-fluoro-4-(trifluoromethoxy)benzyl]-8-[4-(1-methylethyl)pyridin-2-yl]-7H-purine-2-carboxylic acid] | 9.51 nM |

same assay, conditions: Table 2

| Structure (SMILES) | IC50 |
| --- | --- |
| C[C@@H](Nc1nc(C(=O)O)nc2nc(-c3ccc4ncccc4c3)n(Cc3ccc(C(F)(F)F)cc3)c12)C1CC1 [Example 2.69, 6-{[(1R)-1-cyclopropylethyl]amino}-8-quinolin-6-yl-7-[4-(trifluoromethyl)benzyl]-7H-purine-2-carboxylic acid] | 296 nM |
| C[C@@H](Nc1nc(C(=O)O)nc2nc(-c3cnn(C)c3)n(Cc3ccc(C(F)(F)F)cc3)c12)C1CCC1 [Example 2.83, 6-{[(1R)-1-cyclobutylethyl]amino} -8-(1-methyl-1H-pyrazol-4-yl)-7-[4-(trifluoromethyl)benzyl] - 7H-purine-2-carboxylic acid] | 189 nM |
| CCc1ccc(OC)cc1-c1nc2nc(C(=O)O)nc(N[C@H](C)C3CCC3)c2n1Cc1ccc(C(F)(F)F)cc1 [Example 2.80, 6-{[(1R)-1-cyclobutylethyl]amino} -8-(2-ethyl-5-methoxyphenyl)-7-[4-(trifluoromethyl)benzyl]-7H-purine-2-carboxylic acid] | 11.1 nM |
| C[C@@H](Nc1nc(C(=O)O)nc2nc(-c3ccccc3C(N)=O)n(Cc3ccc(C(F)(F)F)cc3)c12)C1CC1 [Example 2.78, 8-(2-carbamoylphenyl)-6-{[(1R)-1-cyclopropylethyl]amino}-7-[4-(trifluoromethyl)benzyl]-7H-purine-2-carboxylic acid] | 219 nM |
| CNS(=O)(=O)c1ccc(-c2nc3nc(C(=O)O)nc(N[C@H](C)C4CCC4)c3n2Cc2ccc(C(F)(F)F)cc2)cc1 [Example 2.41, 6-{[(1R)-1-cyclobutylethyl]amino}-8-[4-(methylsulfamoyl)phenyl]-7-[4-(trifluoromethyl)benzyl]-7H-purine-2-carboxylic acid] | 44 nM |
| C[C@@H](Nc1nc(C(=O)O)nc2nc(C3CC3)n(Cc3ccc(Cl)cc3)c12)C1CC1 [Example 2.42, 7-(4-chlorobenzyl)-8-cyclopropyl-6-{[(1R)-1-cyclopropylethyl]amino}-7H-purine-2-carboxylic acid] | 265 nM |
| C[C@@H](Nc1nc(C(=O)O)nc2nc(-c3ccc(Cl)c(F)c3)n(Cc3ccc(C(F)(F)F)cc3)c12)C1CC1 [Example 2.53, 8-(4-chloro-3-fluorophenyl)-6-{[(1R)-1-cyclopropylethyl]amino}-7-[4-(trifluoromethyl)benzyl]-7H-purine-2-carboxylic acid] | 200 nM |
| C[C@@H](Nc1nc(C(=O)O)nc2nc(-c3cnc(N(C)C)nc3)n(Cc3ccc(C(F)(F)F)cc3)c12)C1CC1 [Example 2.70, 6-{[(1R)-1-cyclopropylethyl]amino}-8-[2-(dimethylamino)pyrimidin-5-yl]-7-[4-(trifluoromethyl)benzyl]-7H-purine-2-carboxylic acid] | 1020 nM |
| Cc1ccc(C)c(-c2nc3nc(C(=O)O)nc(N[C@H](C)C4CC4)c3n2Cc2ccc(Cl)cc2)c1 [Example 2.12, 7-(4-chlorobenzyl)-6-{[(1R)-1-cyclopropylethyl]amino}-8-(2,5-dimethylphenyl)-7H-purine-2-carboxylic acid] | 199 nM |
| C[C@@H](Nc1nc(C(=O)O)nc2nc(-c3ccccc3C(F)(F)F)n(Cc3ccc(C(F)(F)F)cc3)c12)C1CCC1 [Example 2.79, 6-{[(1R)-1-cyclobutylethyl]amino}-7-[4-(trifluoromethyl)benzyl]-8-[2-(trifluoromethyl)phenyl]-7H-purine-2-carboxylic acid] | 13.4 nM |

same assay, conditions: Table 3

| Structure (SMILES) | IC50 |
| --- | --- |
| C[C@@H](Nc1nc(C(=O)O)nc2nc(-c3nccs3)n(Cc3ccc(Cl)cc3)c12)C1CC1 [Example 3.8, 7-(4-chlorobenzyl)-6-{[(1R)-1-cyclopropylethyl]amino}-8-(1,3-thiazol-2-yl)-7H-purine-2-carboxylic acid] | 98.8 nM |

same assay, conditions: Table 4

| Structure (SMILES) | IC50 |
| --- | --- |
| CCOc1ccc(C)cc1-c1nc2nc(C(=O)O)nc(N[C@H](C)C3CCC3)c2n1Cc1ccc(Cl)cc1 [Example 4.1, (R)-7-(4-chlorobenzyl)-6-((1-cyclobutylethyl)amino)-8-(2-ethoxy-5-methylphenyl)-7H-purine-2-carboxylic acid] | 32 nM |
| Cc1ccc(OCC(O)CO)c(-c2nc3nc(C(=O)O)nc(N[C@H](C)C4CC4)c3n2Cc2ccc(Cl)cc2)c1 (stereo partly drawn) [Example 4.19, 7-(4-chlorobenzyl)-6-(((R)-1-cyclopropylethyl)amino)-8-(2-(2,3-dihydroxypropoxy)-5-methylphenyl)-7H-purine-2-carboxylic acid] | 586 nM |

Reference: EP2951180B1, “2,6,7,8 SUBSTITUTED PURINES AS HDM2 INHIBITORS” (Merck Sharp & Dohme Corp., priority 2013, dated 2014)
